Patent publication US7943601B2, “2-methylene-20-methyl-19,24,25,26,27-pentanor-vitamin D analogs” (Wisconsin Alumni Research Foundation, priority 2007, dated 2011)
Read-outs that look alike come from different tables or passages of the source.

Tests used:
HL-60 cells = assay: HL-60 differentiation (nitro blue tetrazolium reduction); type: cell-based, human; details: four days, read-out: EC50, HL-60 cell differentiation
Method: The study drugs were dissolved in ethanol and the concentrations determined using UV spectrophotometry. Serial dilutions were prepared so that a range of drug concentrations could be tested without changing the final concentration of ethanol (≦0.2%) present in the cell cultures.
Human promyelocytic leukemia (HL60) cells were grown in RPMI-1640 medium containing 10% fetal bovine serum. The cells were incubated at 37° C. in the presence of 5% CO2.
HL60 cells were plated at 1.2×10^5 cells/ml. Eighteen hours after plating, cells in duplicate were treated with drug. Four days later, the cells were harvested and a nitro blue tetrazolium reduction assay was performed (Collins et al., 1979; J. Exp. Med. 149:969-974). The percentage of differentiated cells was determined by counting a total of 200 cells and recording the number that contained intracellular black-blue formazan deposits. Verification of differentiation to monocytic cells was determined by measuring phagocytic activity (data not shown).

[1] = tested on: 24-hydroxylase (24Ohase) gene promoter; assay: In vitro transcription assay, luciferase reporter in ROS 17/2.8 (bone) cells; type: cell-based; details: ROS 17/2.8 cells, sixteen hours after dosing; read-out: EC50, transcriptional activity in bone cells (24-hydroxylase gene)
Method: Transcription activity was measured in ROS 17/2.8 (bone) cells that were stably transfected with a 24-hydroxylase (24Ohase) gene promoter upstream of a luciferase reporter gene (Arbour et al., 1998). Cells were given a range of doses. Sixteen hours after dosing the cells were harvested and luciferase activities were measured using a luminometer.
RLU=relative luciferase units.

vitamin D-deficient rats [2] = assay: Bone calcium mobilization (serum calcium); type: in vivo, rat; details: rats on low calcium diet (0.02%); for bone calcium mobilization (serum calcium levels): all dose levels tested, four ip doses
Method: (§1) Male, weanling Sprague-Dawley rats were placed on Diet 11 (0.47% Ca) diet+AEK oil for one week followed by Diet 11 (0.02% Ca)+AEK oil for 3 weeks. The rats were then switched to a diet containing 0.47% Ca for one week followed by two weeks on a diet containing 0.02% Ca. Dose administration began during the last week on 0.02% calcium diet. Four consecutive ip doses were given approximately 24 hours apart. Twenty-four hours after the last dose, blood was collected from the severed neck and the concentration of serum calcium determined as a measure of bone calcium mobilization. The first 10 cm of the intestine was also collected for intestinal calcium transport analysis using the everted gut sac method.

vitamin D-deficient rats [3] = assay: Intestinal calcium transport (everted gut sac method); type: in vivo, rat
Method: as §1

[4] = target: T1, full-length recombinant rat vitamin D receptor (Rattus norvegicus, UniProt P13053); assay: Vitamin D receptor binding, competition with [3H]-1,25(OH)2D3
T1 construct: Full-length recombinant rat receptor was expressed in E. coli; histidine tag (C); made in house; host or cells: E. coli BL21 (DE3) Codon Plus RIL
T1 sequence (P13053 1-423): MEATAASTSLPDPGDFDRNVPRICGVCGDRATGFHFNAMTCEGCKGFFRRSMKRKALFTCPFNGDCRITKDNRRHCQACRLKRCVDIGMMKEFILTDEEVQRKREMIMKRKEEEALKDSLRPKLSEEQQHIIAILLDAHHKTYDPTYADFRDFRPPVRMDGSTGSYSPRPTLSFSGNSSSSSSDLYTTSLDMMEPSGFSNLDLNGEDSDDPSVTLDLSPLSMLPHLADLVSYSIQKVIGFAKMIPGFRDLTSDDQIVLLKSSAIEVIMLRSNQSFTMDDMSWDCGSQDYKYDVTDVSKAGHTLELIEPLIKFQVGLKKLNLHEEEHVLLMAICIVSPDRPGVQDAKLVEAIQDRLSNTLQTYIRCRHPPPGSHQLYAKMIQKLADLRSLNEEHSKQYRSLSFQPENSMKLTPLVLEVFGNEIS
Method: Full-length recombinant rat receptor was expressed in E. coli BL21 (DE3) Codon Plus RIL cells and purified to homogeneity using two different column chromatography systems. The first system was a nickel affinity resin that utilizes the C-terminal histidine tag on this protein. The protein that was eluted from this resin was further purified using ion exchange chromatography (S-Sepharose Fast Flow). Aliquots of the purified protein were quick frozen in liquid nitrogen and stored at −80° C. until use. For use in binding assays, the protein was diluted in TEDK50 (50 mM Tris, 1.5 mM EDTA, pH7.4, 5 mM DTT, 150 mM KCl) with 0.1% Chaps detergent. The receptor protein and ligand concentration were optimized such that no more than 20% of the added radiolabeled ligand was bound to the receptor.
Radiolabeled and unlabeled ligands were added to 100 mcl of the diluted protein at a final ethanol concentration of ≦10%, mixed and incubated overnight on ice to reach binding equilibrium. The following day, 100 mcl of hydroxylapatite slurry (50%) was added to each tube and mixed at 10-minute intervals for 30 minutes. The hydroxylapaptite was collected by centrifugation and then washed three times with Tris-EDTA buffer (50 mM Tris, 1.5 mM EDTA, pH 7.4) containing 0.5% Titron X-100. […] Total binding was determined from the tubes containing only radiolabeled ligand.

[5] = 260 pmol/day ip for 4 consecutive days, everted gut sac

| SMILES | EC50 (HL-60 cells) | EC50 [1] | bone calcium mobilization (serum calcium levels) (vitamin D-deficient rats [2]) | intestinal calcium transport (vitamin D-deficient rats [3]; [5]) | affinity for the vitamin D receptor relative to 1,25(OH)2D3 ([4]; compared to 1,25(OH)2D3) | Ki ([4]; full-length recombinant rat vitamin D receptor, read-out: Ki, competition with [3H]-1,25(OH)2D3 for binding to VDR) | EC50 (HL-60 cells; Homo sapiens, 96 h) | bone calcium mobilization (vitamin D-deficient rats [2]; 260 pmol/day ip for 4 consecutive days) | bone calcium mobilization (vitamin D-deficient rats [2]; 7020 pmol/day ip for 4 consecutive days) | intestinal calcium transport (vitamin D-deficient rats [3]; 7020 pmol/day ip for 4 consecutive days, everted gut sac) | intestinal calcium transport (vitamin D-deficient rats [3]; four consecutive ip doses, doses tested, compared to 1,25(OH)2D3) |
| --- | --- | --- | --- | --- | --- | --- | --- | --- | --- | --- | --- |
| C=C1/C(=C\C=C2/CCC[C@]3(C)[C@@H]([C@H](C)CCCC(C)(C)O)CC[C@@H]23)C[C@@H](O)C[C@@H]1O [1,25(OH)2D3, 1α,25-dihydroxyvitamin D3, reference compound] | 4 nM | 0.2 nM | increased serum calcium levels at all dosages | promotes a significant increase | – | – | – | – | – | – | – |
| C=C1[C@H](O)CC(=C/C=C2\CCC[C@]3(C)[C@@H](C(C)(C)CC)CC[C@@H]23)C[C@H]1O [20DCM, 2-methylene-20-methyl-1α-hydroxy-19,24,25,26,27-pentanor-vitamin D3] | – | 4 nM | does not have any measurable activity | promotes intestinal calcium transport only slightly | approximately one-half log less affinity | 0.08 nM | 10 nM | did not result in mobilization of bone calcium | without effect | no significant intestinal calcium transport activity | very little activity |
